{
  "source": "patent US20260232767A1",
  "about": "“INTERLEUKIN-23 RECEPTOR ANTAGONIST PEPTIDES FOR USE IN THE TREATMENT OF PSORIASIS” (Janssen Pharmaceutica NV, priority 2023, published 2026)",
  "key": {"[1]": {"system": "subjects with moderate-to-severe plaque psoriasis", "test": "DLQI, Example 1", "format": "in vivo, human", "details": "each dose group vs placebo; Week 16", "text": "The Dermatological Life Quality Index (DLQI) is a dermatology-specific health-related quality of life (HRQoL) instrument designed to assess the impact of the disease on a participant's HRQoL. It is a 10-item questionnaire that assesses HRQoL over the past week and in addition to evaluating overall HRQoL, can be used to assess 6 different aspects that may affect quality of life: symptoms and feelings, daily activities, leisure, work or school performance, personal relationships, and treatment. The total score ranges from 0 to 30 with a higher score indicating greater impact on quality of life (QoL).\nEfficacy, PK, immunogenicity, biomarker, pharmacogenomic, and safety criteria were measured during the treatment. Subjects were provided with an electronic device to enter patient-reported outcome (PRO) data at each study visit. All visit-specific PRO assessments were conducted/completed before any tests, procedures or other clinical assessments, with the exception of the urine pregnancy test and urinalysis, to prevent influencing subject perceptions."}, "[2]": {"system": "neutralizing antibodies to the IL-23 receptor antagonist peptide", "details": "through Week 16"}},
  "note": "Like-named read-outs stand apart in the source and are kept apart here.",
  "data": [
    {"smiles": "CC(=O)NCCCC[C@@H]1NC(=O)[C@H](Cc2c[nH]c3c(C)cccc23)NC(=O)[C@H]([C@@H](C)O)NC(=O)[C@H](CC(N)=O)NC(=O)[C@@H](NC(C)=O)C(C)(C)SSC(C)(C)[C@@H](C(=O)N[C@@H](Cc2ccc(OCCN)cc2)C(=O)N[C@@H](Cc2ccc3ccccc3c2)C(=O)NC2(C(=O)N[C@@H](CCC(=O)O)C(=O)N[C@@H](CC(N)=O)C(=O)N[C@@H](Cc3cccnc3)C(=O)N(C)CC(N)=O)CCOCC2)NC1=O", "note": "[IL-23 receptor antagonist peptide, Ac-[Pen]*-N-T-[W(7-Me)]-[Lys(Ac)]-[Pen]*-Phe[4-(2-aminoethoxy)]-[2-Nal]-[THP]-E-N-[3-Pal]-Sarc-NH2 (*[Pen]-[Pen]* formdisulfidebond)]", "values": [
      {"measurement": "Proportion achieving DLQI score of 0 or 1", "setting": "[1]", "value": "significantly higher"},
      {"measurement": "Subjects negative for neutralizing antibodies, %", "setting": "[2]; 25 mg QD, 1 evaluable", "value": "(100%)"},
      {"measurement": "Subjects negative for neutralizing antibodies, %", "setting": "[2]; 50 mg QD, 1 evaluable", "value": "(100%)"},
      {"measurement": "Subjects negative for neutralizing antibodies, %", "setting": "[2]; 100 mg BID, 3 evaluable", "value": "(100%)"},
      {"measurement": "Subjects negative for neutralizing antibodies, %", "setting": "[2]; 100 mg QD, 3 evaluable", "value": "(100%)"},
      {"measurement": "Subjects negative for neutralizing antibodies, %", "setting": "[2]; Combined doses, 8 evaluable", "value": "(100%)"},
      {"measurement": "NAb result of ADA-positive samples", "setting": "[2]", "value": "negative"}
    ]}
  ]
}
